No end group written: not given here.
Key:
PaAP variant R194A [1] = experiment: biochemical; parameters: species or system Pseudomonas aeruginosa; settings: compared to full-length PaAP
Method: (§1) To test this, we produced the PaAP variant R194A to eliminate a likely salt bridge between the peptide COOH and the guanidinium of the protein arginine side chain.
(§2) Inhibition assays were carried out with the following peptides: linear-[…] (PaAP C-terminal residues), cyclic-[…], N-acetylated and C-amidated […]. IC50 values were determined by varying peptide concentration at a fixed substrate concentration (fixed at KM, (S) = 2 mM, PaAP concentration was 100 nM). KI was determined by assaying multiple fixed inhibitor concentrations (1,000 nM, 500 nM, 250 nM, 100 nM, 50 nM, 25 nM and 10 nM) at varying substrate concentrations under standard reaction conditions with Leu-pNA as a substrate (outlined above). KI values were determined by fitting the data to equation (1) (Morrison’s equation):1 v=1−Et+I+KI−Et+I+KI^2−4EtIKI/2Et where v is the velocity, Et is the total enzyme concentration, I is the concentration of inhibitor and KI is the equilibrium dissociation constant for the inhibitor.

PaAP variant R194A [2] = target: T1, PaAP variant R194A (Pseudomonas aeruginosa, UniProt Q02PA2, R194A); experiment: biochemical
T1 construct: PaAP (WT, residues 27–536); His6 (TEV cleavable) (N, cleaved yes); made in house; host or cells: E. coli SHuffle T7
Method: as §1, §2

T1 sequence (Q02PA2 37-516, looked up, stated change not applied): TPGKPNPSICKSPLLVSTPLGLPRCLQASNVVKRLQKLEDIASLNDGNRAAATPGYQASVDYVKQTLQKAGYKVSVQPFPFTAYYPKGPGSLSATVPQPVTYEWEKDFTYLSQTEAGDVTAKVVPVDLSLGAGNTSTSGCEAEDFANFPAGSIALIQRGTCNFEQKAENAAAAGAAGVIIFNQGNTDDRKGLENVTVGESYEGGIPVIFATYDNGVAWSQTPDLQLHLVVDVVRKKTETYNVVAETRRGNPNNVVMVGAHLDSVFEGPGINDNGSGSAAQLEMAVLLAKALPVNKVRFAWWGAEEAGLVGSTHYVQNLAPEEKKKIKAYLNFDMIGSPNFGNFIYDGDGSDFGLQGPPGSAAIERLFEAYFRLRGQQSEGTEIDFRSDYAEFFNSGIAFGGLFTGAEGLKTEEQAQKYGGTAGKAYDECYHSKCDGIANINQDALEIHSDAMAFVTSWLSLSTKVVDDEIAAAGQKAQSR

Sequence: ERWGHDFIK [linear-ERWGHDFIK]
- fold increase of IC50 with R194A variant (PaAP variant R194A [1]): 100 fold
- IC50 (PaAP variant R194A [2]): 306 µM

Source: PMC10449631 (Nature Chemical Biology, 2023)
